Measured values as given in ChEMBL document CHEMBL1201862, “PubChem BioAssay data set” (2004).
Calls of active or inactive are those of the source.

Columns and labels:
Mucolipin-3 = biological target: T1, Mucolipin-3 (Homo sapiens, UniProt Q8TDD5); test: Dose response cell-based high-throughput screening assay for agonists of the transient receptor potential channel ML3 (TRPML3). [Related pubchem assays: 1526, 1424, 1448 ]; type: functional
T1 sequence (Q8TDD5 whole entry): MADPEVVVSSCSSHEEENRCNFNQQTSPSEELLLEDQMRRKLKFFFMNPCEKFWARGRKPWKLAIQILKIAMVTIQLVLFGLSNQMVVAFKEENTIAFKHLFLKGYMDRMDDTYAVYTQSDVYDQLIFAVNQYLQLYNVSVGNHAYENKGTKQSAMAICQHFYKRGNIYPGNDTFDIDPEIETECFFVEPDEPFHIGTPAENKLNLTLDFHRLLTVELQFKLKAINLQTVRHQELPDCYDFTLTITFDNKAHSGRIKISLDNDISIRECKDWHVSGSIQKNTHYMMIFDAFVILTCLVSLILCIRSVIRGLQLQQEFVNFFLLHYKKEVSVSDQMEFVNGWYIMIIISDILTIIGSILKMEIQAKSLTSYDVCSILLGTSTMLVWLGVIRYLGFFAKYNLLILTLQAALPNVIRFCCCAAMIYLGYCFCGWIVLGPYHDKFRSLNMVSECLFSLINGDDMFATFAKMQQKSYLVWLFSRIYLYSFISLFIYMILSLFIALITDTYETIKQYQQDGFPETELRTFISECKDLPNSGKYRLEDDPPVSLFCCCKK

Ion channel NompC = Ion channel NompC (Danio rerio, UniProt Q7T1G6); test: Fluorescence counterscreen assay for TRPML3 agonists: dose response cell-based high-throughput screening assay to identify agonists of the transient receptor potential channel N1 (TRPN1). [Related pubchem assays: 1526, 1424, 1448 ]; type: functional
[1] = HPDE-C7 pancreatic duct cell viability loss – fluorescence, HTS (AID 430); type: functional, cell-based; settings: Homo sapiens
[2] = viability loss of HPDE-C7K cells – cell-based, fluorescence, HTS, primary screen (AID 431); type: functional; settings: Homo sapiens
Cytochrome P450 3A4 = Cytochrome P450 3A4 (Homo sapiens, UniProt P08684); settings: Potency;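 note: confirmatory qHTS run detecting inhibitors and substrates of CYP3A4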
Chain of Cytochrome P450 3A4 (P08684 whole entry): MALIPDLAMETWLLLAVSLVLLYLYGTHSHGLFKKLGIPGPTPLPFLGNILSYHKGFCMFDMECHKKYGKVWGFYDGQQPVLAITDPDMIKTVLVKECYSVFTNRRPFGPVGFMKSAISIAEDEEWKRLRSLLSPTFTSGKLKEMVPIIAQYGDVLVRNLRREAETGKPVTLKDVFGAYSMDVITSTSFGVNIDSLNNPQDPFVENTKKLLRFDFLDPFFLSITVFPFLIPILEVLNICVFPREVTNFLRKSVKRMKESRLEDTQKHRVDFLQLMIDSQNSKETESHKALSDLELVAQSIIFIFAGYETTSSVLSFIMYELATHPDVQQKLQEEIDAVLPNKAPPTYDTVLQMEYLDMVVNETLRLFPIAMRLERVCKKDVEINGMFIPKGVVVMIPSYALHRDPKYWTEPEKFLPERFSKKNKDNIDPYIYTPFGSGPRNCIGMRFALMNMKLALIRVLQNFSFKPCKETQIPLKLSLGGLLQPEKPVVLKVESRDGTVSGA

[3] = biological target: Peroxisome proliferator-activated receptor gamma/Nuclear receptor coactivator 1 (Homo sapiens, UniProt P37231); type: functional;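 note: agonist potency as compounds enhance coactivator SRC-1 recruitment to PPARgamma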
Chain of Peroxisome proliferator-activated receptor gamma/Nuclear receptor coactivator 1 (P37231 whole entry): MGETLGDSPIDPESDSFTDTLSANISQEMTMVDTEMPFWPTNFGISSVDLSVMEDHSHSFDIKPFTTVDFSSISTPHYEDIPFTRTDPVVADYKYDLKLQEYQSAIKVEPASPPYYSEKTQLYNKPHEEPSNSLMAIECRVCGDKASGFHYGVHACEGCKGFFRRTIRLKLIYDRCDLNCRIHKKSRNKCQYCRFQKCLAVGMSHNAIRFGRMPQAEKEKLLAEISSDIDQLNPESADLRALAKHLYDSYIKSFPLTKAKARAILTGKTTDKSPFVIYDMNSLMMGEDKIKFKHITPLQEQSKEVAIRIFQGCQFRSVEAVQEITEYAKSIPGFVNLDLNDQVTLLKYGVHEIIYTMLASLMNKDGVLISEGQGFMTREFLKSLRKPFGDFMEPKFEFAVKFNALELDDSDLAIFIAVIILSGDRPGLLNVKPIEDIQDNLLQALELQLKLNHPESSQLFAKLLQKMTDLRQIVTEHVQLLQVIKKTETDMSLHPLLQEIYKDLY
Chain of Peroxisome proliferator-activated receptor gamma/Nuclear receptor coactivator 1 (Q15788 whole entry, further chain): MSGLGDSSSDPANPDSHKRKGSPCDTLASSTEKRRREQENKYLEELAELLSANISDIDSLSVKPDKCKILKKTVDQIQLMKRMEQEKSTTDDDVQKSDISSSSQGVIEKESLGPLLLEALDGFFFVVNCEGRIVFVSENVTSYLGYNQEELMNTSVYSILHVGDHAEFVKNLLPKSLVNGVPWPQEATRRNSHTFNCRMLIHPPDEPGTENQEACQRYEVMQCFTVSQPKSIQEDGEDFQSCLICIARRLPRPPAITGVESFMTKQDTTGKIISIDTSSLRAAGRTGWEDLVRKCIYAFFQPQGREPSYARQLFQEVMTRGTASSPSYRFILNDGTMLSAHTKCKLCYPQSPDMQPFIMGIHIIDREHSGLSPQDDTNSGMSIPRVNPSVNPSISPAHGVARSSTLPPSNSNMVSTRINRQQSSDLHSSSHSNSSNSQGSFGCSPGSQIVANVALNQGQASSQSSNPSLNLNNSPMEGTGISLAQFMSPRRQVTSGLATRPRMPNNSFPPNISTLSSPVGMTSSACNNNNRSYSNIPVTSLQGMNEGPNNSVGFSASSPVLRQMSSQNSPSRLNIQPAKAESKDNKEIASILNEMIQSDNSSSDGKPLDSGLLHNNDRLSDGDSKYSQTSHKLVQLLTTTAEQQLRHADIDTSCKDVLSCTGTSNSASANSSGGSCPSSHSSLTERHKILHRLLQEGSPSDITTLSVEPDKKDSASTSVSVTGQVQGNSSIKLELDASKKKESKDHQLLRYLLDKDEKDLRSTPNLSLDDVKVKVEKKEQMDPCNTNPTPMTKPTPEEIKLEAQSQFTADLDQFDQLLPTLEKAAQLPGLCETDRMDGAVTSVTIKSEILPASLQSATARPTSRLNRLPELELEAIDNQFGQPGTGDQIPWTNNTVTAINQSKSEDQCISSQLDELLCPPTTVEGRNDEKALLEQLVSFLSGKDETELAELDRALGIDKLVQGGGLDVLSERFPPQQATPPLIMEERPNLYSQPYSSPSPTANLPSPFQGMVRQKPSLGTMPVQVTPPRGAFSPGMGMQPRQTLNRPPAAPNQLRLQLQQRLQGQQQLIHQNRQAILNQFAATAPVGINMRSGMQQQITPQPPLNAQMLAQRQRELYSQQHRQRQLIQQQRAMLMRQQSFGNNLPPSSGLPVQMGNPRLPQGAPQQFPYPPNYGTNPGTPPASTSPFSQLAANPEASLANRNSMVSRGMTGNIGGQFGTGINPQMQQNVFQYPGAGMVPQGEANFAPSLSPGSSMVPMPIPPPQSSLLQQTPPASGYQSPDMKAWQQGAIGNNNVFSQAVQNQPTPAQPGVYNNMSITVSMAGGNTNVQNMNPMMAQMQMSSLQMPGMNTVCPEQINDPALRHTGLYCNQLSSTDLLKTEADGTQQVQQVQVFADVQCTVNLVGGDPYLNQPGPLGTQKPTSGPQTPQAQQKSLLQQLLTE

[4] = biological target: Peroxisome proliferator-activated receptor gamma/Nuclear receptor coactivator 2 (Homo sapiens, UniProt P37231); type: functional;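 note: agonist potency for raising coactivator recruitment to the receptor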
Chain of Peroxisome proliferator-activated receptor gamma/Nuclear receptor coactivator 2 (P37231 whole entry): as the sequence (P37231 whole entry) above
Chain of Peroxisome proliferator-activated receptor gamma/Nuclear receptor coactivator 2 (Q15596 whole entry, further chain): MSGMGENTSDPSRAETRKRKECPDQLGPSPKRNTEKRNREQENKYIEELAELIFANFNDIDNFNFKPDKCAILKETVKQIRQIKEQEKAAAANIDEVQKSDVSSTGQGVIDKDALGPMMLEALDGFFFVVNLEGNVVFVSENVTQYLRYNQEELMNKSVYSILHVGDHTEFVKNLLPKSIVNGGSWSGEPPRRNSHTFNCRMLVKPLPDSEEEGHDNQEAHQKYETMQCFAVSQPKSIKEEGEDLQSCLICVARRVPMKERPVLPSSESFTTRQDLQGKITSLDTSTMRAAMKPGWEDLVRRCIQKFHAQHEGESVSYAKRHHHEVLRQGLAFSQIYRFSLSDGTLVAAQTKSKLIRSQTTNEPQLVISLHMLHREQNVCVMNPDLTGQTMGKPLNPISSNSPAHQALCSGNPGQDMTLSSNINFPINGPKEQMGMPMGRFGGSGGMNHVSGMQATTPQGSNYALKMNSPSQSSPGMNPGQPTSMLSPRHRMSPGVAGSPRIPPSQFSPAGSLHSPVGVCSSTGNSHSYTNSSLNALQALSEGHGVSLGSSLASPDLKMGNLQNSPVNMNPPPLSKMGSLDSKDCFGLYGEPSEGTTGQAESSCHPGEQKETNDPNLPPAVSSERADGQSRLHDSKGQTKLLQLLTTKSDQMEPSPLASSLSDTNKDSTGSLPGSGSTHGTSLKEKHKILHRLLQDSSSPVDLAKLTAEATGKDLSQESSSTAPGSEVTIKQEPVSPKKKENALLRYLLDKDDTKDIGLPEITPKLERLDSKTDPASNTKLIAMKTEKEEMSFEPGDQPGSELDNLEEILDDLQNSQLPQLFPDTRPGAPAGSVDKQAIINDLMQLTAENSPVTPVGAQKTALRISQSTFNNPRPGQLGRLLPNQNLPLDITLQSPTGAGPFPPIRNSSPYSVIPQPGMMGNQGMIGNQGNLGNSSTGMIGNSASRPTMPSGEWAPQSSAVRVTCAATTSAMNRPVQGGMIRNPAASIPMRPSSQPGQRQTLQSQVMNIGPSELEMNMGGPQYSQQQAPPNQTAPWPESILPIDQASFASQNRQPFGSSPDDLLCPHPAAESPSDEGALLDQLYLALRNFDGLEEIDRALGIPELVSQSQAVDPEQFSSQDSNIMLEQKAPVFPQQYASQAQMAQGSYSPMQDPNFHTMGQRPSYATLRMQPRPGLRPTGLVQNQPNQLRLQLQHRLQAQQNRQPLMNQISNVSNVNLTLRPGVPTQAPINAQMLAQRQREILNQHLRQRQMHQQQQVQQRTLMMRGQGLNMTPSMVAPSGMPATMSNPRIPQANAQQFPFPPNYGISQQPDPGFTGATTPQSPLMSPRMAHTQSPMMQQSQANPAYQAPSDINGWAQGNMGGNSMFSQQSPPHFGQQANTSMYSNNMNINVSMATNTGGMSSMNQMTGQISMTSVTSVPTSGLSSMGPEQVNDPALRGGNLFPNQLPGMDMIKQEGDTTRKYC

[5] = biological target: Peroxisome proliferator-activated receptor gamma/Nuclear receptor coactivator 3 (Homo sapiens, UniProt P37231); type: functional;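 note: agonist potency for raising coactivator recruitment to the receptor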
[6] = CellTiter-Glo luminescence survival assay, SW480 colon tumor line, concentration-response curve, half-maximal inhibitory concentration (AID 1117338); type: functional
[7] = Reduced DLD-1 viability, concentration-response, CellTiter-Glo luminescence (AID 1117352); type: functional
[8] = cytotoxicity toward HCT116 cells – cell-based, CellTiter-Glo luminescence, IC50, dose response (AID 1117332); type: functional; settings: HCT-116
[9] = cytotoxicity toward Colo320 cells – cell-based, CellTiter-Glo luminescence, IC50, dose response (AID 1117334); type: functional; settings: COLO 320
[10] = HCT116 cell viability decrease, GSK3B pretreatment – CellTiter-Glo, IC50, dose response (AID 1117339); type: functional; settings: HCT-116
[11] = cytotoxicity toward HT-29 cells – cell-based, CellTiter-Glo luminescence, IC50, dose response (AID 1117330); type: functional
[12] = RKO cell viability reduction, dose response, CellTiter-Glo luminescence (AID 1117322); type: functional
[13] = SNU-C1 cell viability reduction, dose response, CellTiter-Glo luminescence (AID 1117323); type: functional, cell-based
[14] = Luminescence Cell-Based Dose Response to Identify Activators of 5'UTR Stem-Loop Driven Prion Protein mRNA Translation in H4-C Neuroglioblastoma Cells. [Related pubchem assays: 1829 (Project Summary), 1814 (Primary HTS)]; type: functional
[15] = Luminescence Cell-Based Dose Response to Identify Activators of Luciferase Translation or Activity in H4-C Neuroglioblastoma Cells. [Related pubchem assays: 1829 (Project Summary), 1814 (Primary HTS)]; type: functional
[16] = Luminescence Cell-Based Dose Confirmation to Identify Activators of 5'UTR Stem-Loop Driven Alpha-Synuclein mRNA Translation in H4 Neuroglioblastoma Cells. [Related pubchem assays: 1829 (Project Summary), 1814 (Primary HTS)]; type: functional
[17] = Luminescence Cell-Based Dose Confirmation HTS to Identify Activators of 5'UTR Stem-Loop Driven Alpha-Synuclein mRNA Translation in H4 Neuroglioblastoma Cells. [Related pubchem assays: 1829 (Project Summary), 1814 (Primary HTS)]; type: functional
[18] = Luminescence Cell-Based Dose Response HTS to Identify Activators of Luciferase Translation or Activity in H4 […] Cells. [Related pubchem assays: 1829 (Project Summary), 1814 (Primary HTS)]; type: functional
[19] = P. falciparum Dd2 growth inhibitors, dose response, SYBR Green, cherry-picked samples (AID 1159567); type: functional, cell-based

Row | Compound | IC50 [6] | IC50 [7] | IC50 [8] | IC50 [9] | IC50 [11] | IC50 [12] | other results
1 | CCOC(=O)C1=C(NC(=S)NC(=O)c2ccccc2)c2ccccc2CC1(C)C | – | – | – | – | – | – | EC50 (Mucolipin-3): 5.5 µM (active); EC50 (Ion channel NompC): > 29.9 µM (not active)
2 | CC1CN(c2oc(COc3ccc(Cl)cc3Cl)nc2C#N)CC(C)O1 (configuration not stated) | – | – | – | – | – | – | EC50 [1]: > 20 µM (not active); EC50 [2]: > 20 µM (not active)
3 | COC(C)C(O)(C(=O)OC1=CCN2CC[C@H](O)[C@H]12)C(C)C (some centres not stated) | – | – | – | – | – | – | AC50 (Cytochrome P450 3A4): 50.1 µM (inconclusive)
4 | O=c1[nH]n(-c2ccccc2)c(=O)c2ccccc12 | – | – | – | – | – | – | EC50 [3]: > 79.4 µM (not active); EC50 [4]: > 79.4 µM (not active); EC50 [5]: > 79.4 µM (not active)
5 | CSCCNC(C)=O | – | – | – | – | – | – | EC50 [3]: > 79.4 µM (not active); EC50 [4]: > 79.4 µM (not active); EC50 [5]: > 79.4 µM (not active)
6 | CC1CCC(C(C)C)C(OC(=O)c2ccccc2O)C1 (configuration not stated) | > 20 µM (inactive) | > 20 µM (inactive) | > 20 µM (inactive) | > 20 µM (inactive) | > 20 µM (inactive) | > 20 µM (inactive) | IC50 [10]: > 20 µM (inactive); IC50 [13]: > 20 µM (inactive)
7 | CC(=N)/C(C#N)=C(/O)CSc1nc2cc(C)ccc2[nH]1 | – | – | – | – | – | – | EC50 [14]: 0.321 µM (active); EC50 [15]: 0.296 µM (active); EC50 [16]: 0.424 µM (active); EC50 [17]: 1.68 µM (active); EC50 [18]: < 0.1 µM (active)
8 | COc1ccc(CN2CC3(CCN(C(=O)c4ccccc4)CC3)c3c([nH]c4cc(OC)ccc34)[C@@H]2CO)cc1 | – | – | – | – | – | – | AC50 [19]: 3 µM (active)
9 | COc1ccc2c3c(n(C)c2c1)[C@H](CO)N(Cc1ccccc1F)CC31CCN(CC2CC2)CC1 | – | – | – | – | – | – | AC50 [19]: 3.46 µM (active)
10 | COc1ccc(C(=O)c2ccccc2O)c(O)c1 [DIOXYBENZONE] | > 20 µM (inactive) | > 20 µM (inactive) | > 20 µM (inactive) | > 20 µM (inactive) | > 20 µM (inactive) | > 20 µM (inactive) | –
11 | CCC1Nc2cc(Cl)c(S(N)(=O)=O)cc2S(=O)(=O)N1 (configuration not stated) [ETHIAZIDE] | > 6.67 µM (inactive) | > 20 µM (inactive) | > 20 µM (inactive) | > 20 µM (inactive) | > 20 µM (inactive) | > 20 µM (inactive) | IC50 [10]: > 20 µM (inactive); IC50 [13]: > 20 µM (inactive)
12 | CN(C)c1ccc(C(=C2C=CC(=[N+](C)C)C=C2)c2ccc(N(C)C)cc2)cc1 [GENTIAN VIOLET] | 0.528 µM (active) | 0.471 µM (active) | 0.514 µM (active) | 2.05 µM (active) | 0.466 µM (active) | 0.994 µM (active) | IC50 [13]: 0.394 µM (active)
